Assay results as given in publication PMC11554305, “Functional identification of soluble uric acid as an endogenous inhibitor of CD38” (eLife, 2024).

Key:
[1] = tested on: CD38; assay: Hydrolase and cyclase activities of human and murine CD38; format: biochemical
Protocol: (§1) The hydrolase activity of CD38 was measured according to a previous report ([de Oliveira et al., 2018]) with minor modifications. CD38 hydrolase activity was measured using 50 μM ε-NAD^+ as a substrate in hydrolase reaction buffer (250 mM sucrose, 40 mM Tris-HCl, pH 7.4). Briefly, cells or tissues were directly homogenized in blank reaction buffer on ice, and recombinant hCD38 was diluted in blank reaction buffer for subsequent assays. The tissue homogenates were centrifuged to collect the supernatant for enzyme assays. The loading volume of enzyme was 4–30 μL, the total volume of the reaction system was 3 mL. To detect enzyme inhibition, except when specified, the ligands were directly dissolved in hydrolase reaction buffer before pH adjustment, after which, the pH was immediately adjusted to 7.4. All reaction buffers, with or without ligands, were freshly prepared before each assay. For measurement of hydrolase activity, 3 mL reaction buffer containing enzyme, ε-NAD^+, and ligands at indicated concentrations was maintained at 37°C with constant stirring.
(§2) The cyclase activity of CD38 was measured as previously described ([Higashida et al., 1999]; [Jin et al., 2007]). CD38 cyclase activity was measured using 60 μM NGD as a substrate in cyclase reaction buffer (100 mM KCl, 10 μM CaCl2, and 50 mM Tris-HCl, pH 6.6). Tissues were cut into pieces and suspended in the buffer (5 mM MgCl2, 10 mM Tris-HCl, pH 7.3) at 4°C for 30 min. Then, the suspension was homogenized on ice, and the supernatant was collected after centrifugation. To collect the crude membrane fractions, the supernatant was centrifuged at 105,000×g for 30 min. The final pellet was resuspended in 10 mM Tris-HCl solution (pH 6.6) for cyclase assay. Homogenates of THP-1 or A549 cells, and recombinant hCD38 were used directly for cyclase assays. The loading volume of enzyme was 4–20 μL, the total volume of reaction system was 3 mL. To detect enzyme inhibition, except when specified, the ligands were directly dissolved in cyclase reaction buffer before pH adjustment, after which, the pH was immediately adjusted to 6.6. All reaction buffers, with or without ligands, were freshly prepared before each assay. For measurement of cyclase activity, 3 mL reaction buffer containing enzyme, NGD, and ligands at indicated concentrations was maintained at 37°C with constant stirring.
(§3) The reaction buffer for hydrolase or cyclase assays was excited at 300 nm, and fluorescence emission was measured every second at 410 nm by Shimazu RF-6000 spectrofluorometer. Hydrolase or cyclase activity was calculated from the linear portion of the time course by fitting a linear function to the data points recorded within 5 min.
Guanosine was dissolved in DMSO and diluted in the reaction buffer for subsequent assays.
For reversibility test, recombinant hCD38 was pre-incubated for 30 min in four conditions: (1) control reaction buffer; (2) in the presence of 100 μM substrate (ε-NAD^+ or NGD); (3) 500 μM sUA; (4) both substrate and sUA. Subsequently, the enzyme was diluted 100-fold in reaction buffer in the presence or absence of 500 μM sUA for activity assays using ε-NAD^+ or NGD. Naïve THP-1 and A549 cells were incubated with RPMI-1640 medium in the presence or absence of 500 μM sUA for 2 hr. The cells were collected and homogenized in the reaction buffer on ice with or without 500 μM sUA, samples were then diluted 100-fold in reaction buffer with or without 500 μM sUA for enzyme assay. Control group was not treated with sUA in all steps; sUA group was treated with sUA in each step; sUA release group was treated with sUA prior to dilution in sUA-free buffer for enzyme assays.

[2] = target: T1, murine CD38 (Mus musculus, UniProt P56528); assay: CD38 hydrolase activity in tissues from WT mice; format: biochemical; conditions: for Ki: WT mice, Figure 1E
T1 construct: from tissue; host or cells: WT ICR mouse tissues (brain, liver, lung, heart, kidney, spleen, ileum, skeletal muscle)
T1 sequence (P56528 1-304): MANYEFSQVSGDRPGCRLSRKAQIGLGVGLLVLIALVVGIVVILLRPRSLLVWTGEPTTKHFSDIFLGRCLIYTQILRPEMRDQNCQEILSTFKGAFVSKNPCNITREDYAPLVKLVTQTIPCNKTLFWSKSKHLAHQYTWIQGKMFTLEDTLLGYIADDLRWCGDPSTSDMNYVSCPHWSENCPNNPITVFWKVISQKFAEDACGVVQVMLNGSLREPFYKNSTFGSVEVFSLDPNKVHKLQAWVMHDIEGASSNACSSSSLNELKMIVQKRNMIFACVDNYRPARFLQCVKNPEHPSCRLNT
Protocol: as §1, §3

[3] = target: T1, murine CD38; assay: CD38 cyclase activity in tissues from WT mice; format: biochemical; conditions: for Ki: WT mice, Figure 1E
Protocol: as §2, §3

[4] = target: uricase; set-up: method as in Fridovich, 1965; conditions: ref Fridovich, 1965; cited from earlier work
[5] = target: T2, poly(ADP-ribose) polymerase (PARP) (Homo sapiens, UniProt P09874); assay: PARP activity (colorimetric kit); format: biochemical; conditions: Figure 3—figure supplement 2C
T2 construct: purchased R&D Systems 4677-096-K
T2 sequence (P09874 whole entry): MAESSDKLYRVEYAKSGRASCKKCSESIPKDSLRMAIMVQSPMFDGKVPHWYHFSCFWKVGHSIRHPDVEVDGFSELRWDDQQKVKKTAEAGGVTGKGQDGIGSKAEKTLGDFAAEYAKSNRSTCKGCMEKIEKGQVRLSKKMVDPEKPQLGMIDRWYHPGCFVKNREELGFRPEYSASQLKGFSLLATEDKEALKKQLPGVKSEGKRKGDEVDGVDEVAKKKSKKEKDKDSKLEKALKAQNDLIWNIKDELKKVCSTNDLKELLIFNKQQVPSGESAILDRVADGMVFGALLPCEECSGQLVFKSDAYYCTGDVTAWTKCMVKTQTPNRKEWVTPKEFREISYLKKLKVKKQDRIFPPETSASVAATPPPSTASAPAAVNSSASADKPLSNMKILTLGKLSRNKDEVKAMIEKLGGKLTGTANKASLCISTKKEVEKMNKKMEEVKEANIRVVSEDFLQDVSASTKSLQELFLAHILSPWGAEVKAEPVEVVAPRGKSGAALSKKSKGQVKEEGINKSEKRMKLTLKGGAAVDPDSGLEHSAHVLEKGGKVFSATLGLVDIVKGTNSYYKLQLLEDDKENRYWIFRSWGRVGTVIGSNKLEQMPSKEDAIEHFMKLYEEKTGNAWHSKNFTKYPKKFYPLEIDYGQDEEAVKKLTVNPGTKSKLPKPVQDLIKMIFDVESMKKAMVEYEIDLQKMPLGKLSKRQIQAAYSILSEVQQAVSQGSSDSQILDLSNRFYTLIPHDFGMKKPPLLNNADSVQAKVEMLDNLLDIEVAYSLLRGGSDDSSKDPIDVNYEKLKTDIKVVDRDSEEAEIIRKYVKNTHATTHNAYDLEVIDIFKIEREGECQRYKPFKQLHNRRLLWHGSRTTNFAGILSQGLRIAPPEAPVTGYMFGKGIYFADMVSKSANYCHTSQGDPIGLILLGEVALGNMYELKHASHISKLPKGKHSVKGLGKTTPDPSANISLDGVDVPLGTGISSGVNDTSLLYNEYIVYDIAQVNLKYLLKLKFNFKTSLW
Protocol: The activities of NAMPT and PARP were measured using commercial kits, HT Universal Colorimetric PARP Assay Kit, and CycLex NAMPT Colorimetric Assay Kit Ver.2. The solutions of ligands were freshly prepared (pH was adjusted to 7.4) and were immediately used for enzyme assays.

[6] = tested on: primed THP-1 cells; assay: Canonical inflammasome assay, IL-1β release in primed THP-1 cells; format: cell-based, human
Protocol: (§4) Human IL-1β, mouse IL-1β, IL-6, IL-18, TNF-α, and CXCL1 levels were measured according to the protocols provided by the manufacturer. Serum samples were diluted before ELISA when applicable. In this study, all the samples were frozen after collection and thawed before ELISA.
Naïve THP-1 cells were primed with 0.5 μM phorbol 12-myristate 13-acetate for 3 hr the day before stimulation. Primed THP-1 cells were pre-incubated in RPMI-1640 medium in the presence or absence of sUA (5 or 10 mg/dL) for 2 hr. The cells were then washed twice with sterile PBS, and were stimulated with MSU crystals, cLPS, zymosan, and ATP in serum-free RPMI-1640 medium for 4 hr.
(§5) After stimulation, the culture medium was collected and centrifuged at 3000 rpm, 4°C for 5 min, the supernatant was collected and stored at –30°C until ELISA.

[7] = tested on: primed WT BMDMs; assay: Canonical inflammasome assay, IL-1β release in primed BMDMs; format: cell-based, mouse
Protocol: as §4
WT and CD38 KO BMDMs were primed with 100 ng/mL ultrapure LPS for 4 hr. Subsequently, primed BMDMs were pre-incubated with or without sUA for 2 hr, the cells were then washed twice with sterile PBS and were stimulated with nigericin, MSU crystals, or cLPS in serum-free RPMI-1640 medium.
as §5

[8] = lung tissues from WT mice, OA 0–5 mM

O=c1[nH]cnc2c1ncn2[C@@H]1O[C@H](CO)[C@@H](O)[C@H]1O [Inosine, inosine, reference compound]
Effect on hydrolase and cyclase activities of human and murine CD38 ([1]; sUA precursors and metabolite, above physiological levels, Figure 2B, C and supplement 1A–C): hardly inhibited

O=C(O)c1nc(=O)[nH]c(=O)[nH]1 [OA, oxonic acid, reference compound]
IC50 [2, 8]: 2200 µM
IC50 [3, 8]: 4470 µM
Ki for uricase [4]: nanomolar range

O=c1[nH]c(=O)c2[nH]c(=O)[nH]c2[nH]1 [sUA, uric acid]
Ki ([2]; Brain): 83.5 µM
Ki ([2]; Heart): 80.6 µM
Ki ([2]; Ileum): 79.9 µM
Ki ([2]; Kidney): 84.7 µM
Ki ([2]; Liver): 77.3 µM
Ki ([2]; Lung): 82.5 µM
Ki ([2]; Skeletal muscle): 83 µM
Ki ([2]; Spleen): 70.5 µM
Ki ([3]; Brain): 71.1 µM
Ki ([3]; Heart): 70.9 µM
Ki ([3]; Ileum): 72.1 µM
Ki ([3]; Kidney): 78.2 µM
Ki ([3]; Liver): 76.7 µM
Ki ([3]; Lung): 77 µM
Ki ([3]; Skeletal muscle): 93.3 µM
Ki ([3]; Spleen): 78.1 µM
Effect on PARP activity [5]: without affecting the activities
Induction of IL-1β release by sUA itself [6]: did not induce IL-1β release
IL-1β release after stimulation ([6]; sUA pre-incubation 2 hr, then MSU crystals, cLPS, zymosan or ATP): moderately limited IL-1β release
Induction of IL-1β release by sUA itself ([7]; sUA 100, 200 and 500 μM, 6 hr): did not induce IL-1β release
Inflammasome activation (IL-1β release) ([7]; sUA 100 or 200 μM pre-incubation 2 hr): hardly suppressed inflammasome activation
Ki ([1]; span over all enzyme sources): 57.1 to 93.3 µM
